Laboratory results as given in patent US20120004199A1, “SCAFFOLDS” (priority 2009, published 2012).

Legend:
NF-κB/p65 = NF-κB/p65 activation immunolabelling in 2D fibroblast cultures stimulated with LPS or TNF-α; format: cell-based, human; details: for effect on LPS induced NF-κB activation / effect on TNF induced NF-κB activation: 10^−4 and 10^−3M; for effect on LPS induced NF-κB activation: LPS 100 ng/mL; for effect on TNF induced NF-κB activation: TNF-α 1000 U/mL
Experimental: LPS from E. coli serotype O111:B4 (Sigma-Aldrich) at 100 ng/mL or TNF-α (Sigma-Aldrich) at 1000 U/mL was used as a positive control for activation of NF-κB in fibroblasts. In preliminary experiments, Ibuprofen (10^−3 and 10^−4 M, sodium salt and isomer mixture; Sigma-Aldrich, UK) was used to downregulate NF-κB activation. Then the 10% Ibuprofen loaded PLGA scaffolds (75/25, 50/50 and a 1:1 blend of these two) were examined. Negative controls were produced by incubating cells in normal DMEM. All experiments were performed in triplicate.
Following the Ibuprofen treatments, monolayers were washed in PBS and the cells were fixed in 10% formalin (500 μL per well) for 30 minutes. Cell monolayers were washed a further three times in PBS, prior to cell permeabilisation with 0.1% Triton X100 for 20 minutes. Subsequently, cells were washed three times with PBS. Unreactive binding sites were blocked by adding a 5% dried milk powder solution to each well for 1 hour. A further three washes in PBS were performed prior to incubation with the first antibody solution. The first antibody (rabbit polyclonal antihuman IgG NF-κB p65 C-20, Santa Cruz Biotechnology Inc., CA) was added at a concentration of 1:100 in 1% PBS-dried milk powder. Cells were incubated in the antibody solution at 4° C. for 18 hours. The cells were washed three more times in PBS. Afterwards, cells were incubated with biotinylated goat anti-rabbit (1:1000) (Vector Laboratories, CA) in 1% PBS-milk powder. The cells were then washed a further three times in PBS. Streptavidin-FITC (Vector Laboratories, CA) conjugate was then added to the wells at a concentration of 1:100 in PBS. A further three washes in PBS were performed. After this time, the fluorescent staining were visualised using an AXON image express system (Axon Instruments/Molecular Devices, Union City, Calif.). Briefly, fluorescence micrographs of immunolabelled samples were taken using epifluorescent illumination at λex 495 nm λem 515 nm (for FITC visualisation); λex 358 nm λem 461 nm (for DAPI visualisation). DAPI fluorescence was used to identify nuclear position. The boundary between nucleus and cytoplasm was delimited by analysis software (ImageXpress Console 1.0) using DAPI micrographs in a sample of at least 100 cellular counts per visual field. Within the defined region, the intensity of FITC (NF-κB/p65) labelling was used to calculate activation for each micrograph and sample. […] The analysis of the micrographs was done in triplicate.

human fibroblast (HDF) = assay: MTT-ESTA assay of cell metabolic activity, 2D HDF cultures; format: cell-based; details: for % Viability: 24 h exposure, HDF; for concentration showing a cytotoxic response: fibroblast viability
Experimental: (§1) Normal human fibroblasts were isolated and cultured as described previously (Ralston et al., 1997). […] Keratinocytes were cultured in Dulbecco's modified Eagle's medium (DMEM) supplemented with 10% (v/v) foetal calf serum (FCS), 2 mM glutamine, 0.625 μg/ml amphotericin B, 100 IU/ml penicillin and 100 μg/ml streptomycin.

[1] = as above; format: cell-based, human; details: human, normal human dermal fibroblasts (HDF), 2D monolayer culture, 24 h exposure, HDF
Experimental: as §1

TNF-α
activation of NF-κB (NF-κB/p65; stimulus alone, LPS 100 ng/mL or TNF-α 1000 U/mL): 80%

CC(C)Cc1ccc(C(C)C(=O)O)cc1 (racemic) [Ibuprofen isomer mixture, 2-(4-isobutylphenyl)propionic acid]
% Viability (human fibroblast (HDF); Treatment 10^−2): 7.20% | % Viability (human fibroblast (HDF); Treatment 10^−3): 101.11% | % Viability (human fibroblast (HDF); Treatment 10^−4): 108.56% | % Viability (human fibroblast (HDF); Treatment 10^−5): 111.80% | % Viability (human fibroblast (HDF); Treatment 10^−6): 109.43% | concentration showing a cytotoxic response (human fibroblast (HDF)): 10^−2 M | effect on LPS induced NF-κB activation (NF-κB/p65): significantly reducing the response | effect on TNF induced NF-κB activation (NF-κB/p65): significantly reducing the response

CC(C)Cc1ccc(C(C)C(=O)[O-])cc1.[Na+] (centres unmarked) [Ibuprofen Sodium Salt]
viability at 24 h ([1]; Treatment 10^−3): 90.3% | viability at 24 h ([1]; Treatment 10^−4): 98.2% | viability at 24 h ([1]; Treatment 10^−5): 100% | viability at 24 h ([1]; Treatment 10^−6): 102% | % Viability (human fibroblast (HDF); Treatment 10^−2): 38.25% | concentration showing a cytotoxic response (human fibroblast (HDF)): 10^−2 M | effect on LPS induced NF-κB activation (NF-κB/p65): significantly reducing the response | effect on TNF induced NF-κB activation (NF-κB/p65): significantly reducing the response
